Drawing on US10711002B2, “Purine compounds and method for the treatment of cancer” (THE ROYAL INSTITUTION FOR THE ADVANCEMENT OF …, priority 2016, dated 2020), this text covers inhibition for five molecules.

Experiment in all cases: High-throughput kinase assay
What all share (assay type): biochemical

One assay addresses SYK (Homo sapiens, UniProt P43405). Conditions: read-out: Percent inhibition of kinase activity in vitro, SYK; for inhibition at 0.1 µM: 100 nM; for inhibition at 0.5 µM: 500 nM. As for the experimental part:
(§1) Screening of Compounds 1-4 against several kinases identified two prominent targets of these compounds as the Aurora A kinase and calcium dependent protein kinase C isoforms α, βI, βII and […] (Tables 1 to 3). IC50s for these two targets were obtained by plotting inhibition levels at 500 nM, 100 nM, 50 nM and 10 nM (FIG. 3). These kinases are directly involved in pathways controlling cell differentiation programs, metastasis signaling, as well as EMT and CSC programming and their overexpression was reported to predict decreased metastasis-free survival.

For the next assay, the target named is FLT1 (VEGFR1) (Homo sapiens, UniProt P17948). Conditions: read-out: Percent inhibition of kinase activity in vitro, FLT1 (VEGFR1); for inhibition at 0.1 µM: 100 nM; for inhibition at 0.5 µM: 500 nM. As for the experimental part:
as §1

A further assay addresses LCK (Homo sapiens, UniProt P06239). Conditions: read-out: Percent inhibition of kinase activity in vitro, LCK; for inhibition at 0.1 µM: 100 nM; for inhibition at 0.5 µM: 500 nM. As for the experimental part:
as §1

For another assay, the target named is AURKB (Aurora B) (Homo sapiens, UniProt Q96GD4). The note with it: read-out: Percent inhibition of kinase activity in vitro, AURKB (Aurora B); for inhibition at 0.1 µM: 100 nM; for inhibition at 0.5 µM: 500 nM. As for the experimental part: as §1
Sequence of AURKB (Aurora B) (Q96GD4 whole entry): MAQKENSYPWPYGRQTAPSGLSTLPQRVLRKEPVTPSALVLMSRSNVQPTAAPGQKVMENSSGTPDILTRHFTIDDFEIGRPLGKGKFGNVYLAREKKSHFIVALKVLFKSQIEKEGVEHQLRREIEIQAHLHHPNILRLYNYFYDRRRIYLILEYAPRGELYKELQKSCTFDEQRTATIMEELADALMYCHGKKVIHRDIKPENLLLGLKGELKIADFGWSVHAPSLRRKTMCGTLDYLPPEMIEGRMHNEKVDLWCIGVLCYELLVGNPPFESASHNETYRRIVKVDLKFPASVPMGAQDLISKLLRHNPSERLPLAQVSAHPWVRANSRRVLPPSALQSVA
The target in another assay is T1, PRKD1 (PKC mu) (Homo sapiens, UniProt Q15139).
T1 sequence (Q15139 1-912): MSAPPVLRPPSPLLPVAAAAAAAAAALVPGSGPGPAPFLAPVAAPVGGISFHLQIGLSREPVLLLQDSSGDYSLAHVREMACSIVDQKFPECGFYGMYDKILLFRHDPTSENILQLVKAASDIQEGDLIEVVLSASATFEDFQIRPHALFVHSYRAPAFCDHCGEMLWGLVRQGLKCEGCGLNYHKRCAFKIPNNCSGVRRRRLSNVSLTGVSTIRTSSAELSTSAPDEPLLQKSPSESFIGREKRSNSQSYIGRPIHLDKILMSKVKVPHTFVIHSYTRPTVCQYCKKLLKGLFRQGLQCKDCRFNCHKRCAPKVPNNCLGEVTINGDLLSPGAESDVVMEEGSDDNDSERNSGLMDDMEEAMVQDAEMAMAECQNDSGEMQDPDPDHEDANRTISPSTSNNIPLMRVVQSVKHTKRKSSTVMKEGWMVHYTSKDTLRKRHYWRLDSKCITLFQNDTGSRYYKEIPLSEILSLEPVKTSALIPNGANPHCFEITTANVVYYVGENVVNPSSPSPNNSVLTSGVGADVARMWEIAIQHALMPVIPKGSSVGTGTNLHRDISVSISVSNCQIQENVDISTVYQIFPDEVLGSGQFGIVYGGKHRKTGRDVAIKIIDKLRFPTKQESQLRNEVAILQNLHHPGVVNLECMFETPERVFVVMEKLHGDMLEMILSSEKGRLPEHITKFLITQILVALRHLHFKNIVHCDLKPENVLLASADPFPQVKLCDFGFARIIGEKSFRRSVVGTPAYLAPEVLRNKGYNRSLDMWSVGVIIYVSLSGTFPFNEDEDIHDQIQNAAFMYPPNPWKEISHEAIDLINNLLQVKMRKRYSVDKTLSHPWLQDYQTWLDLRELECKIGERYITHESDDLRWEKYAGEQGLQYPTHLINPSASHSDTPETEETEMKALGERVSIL
The note with it: 50 nM; read-out: Percent inhibition of kinase activity in vitro, PRKD1 (PKC mu). As to the method:
as §1

For the next assay, the target named is PRKCB2 (PKC beta II) (Homo sapiens, UniProt P05771). The note with it: 50 nM; read-out: Percent inhibition of kinase activity in vitro, PRKCB2 (PKC beta II). As to the method: as §1
Sequence of PRKCB2 (PKC beta II) (P05771 1-673 isoform P05771-2): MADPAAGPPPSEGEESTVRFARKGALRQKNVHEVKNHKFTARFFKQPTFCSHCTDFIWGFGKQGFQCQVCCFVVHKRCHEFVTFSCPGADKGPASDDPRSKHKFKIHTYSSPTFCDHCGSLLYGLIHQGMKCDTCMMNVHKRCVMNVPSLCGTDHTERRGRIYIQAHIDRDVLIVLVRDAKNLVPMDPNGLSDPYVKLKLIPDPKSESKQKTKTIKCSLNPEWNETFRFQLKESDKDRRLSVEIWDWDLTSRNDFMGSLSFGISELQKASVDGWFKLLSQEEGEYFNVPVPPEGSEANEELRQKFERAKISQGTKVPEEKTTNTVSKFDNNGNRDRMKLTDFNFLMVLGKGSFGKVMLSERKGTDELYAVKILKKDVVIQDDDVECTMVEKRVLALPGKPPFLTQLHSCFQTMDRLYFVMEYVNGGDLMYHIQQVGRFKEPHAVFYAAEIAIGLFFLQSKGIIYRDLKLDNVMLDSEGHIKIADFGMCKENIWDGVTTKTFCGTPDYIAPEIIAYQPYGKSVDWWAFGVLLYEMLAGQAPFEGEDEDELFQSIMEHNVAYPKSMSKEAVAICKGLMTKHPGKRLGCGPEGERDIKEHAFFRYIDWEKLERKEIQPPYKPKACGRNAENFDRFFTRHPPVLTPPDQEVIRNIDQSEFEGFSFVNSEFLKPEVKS
The target in a further assay is PRKCQ (PKC theta) (Homo sapiens, UniProt Q04759). The note with it: 50 nM; read-out: Percent inhibition of kinase activity in vitro, PRKCQ (PKC theta). As for the experimental part:
as §1

The next assay addresses T2, PRKCI (PKC iota) (Homo sapiens, UniProt P41743).
T2 sequence (P41743 1-596): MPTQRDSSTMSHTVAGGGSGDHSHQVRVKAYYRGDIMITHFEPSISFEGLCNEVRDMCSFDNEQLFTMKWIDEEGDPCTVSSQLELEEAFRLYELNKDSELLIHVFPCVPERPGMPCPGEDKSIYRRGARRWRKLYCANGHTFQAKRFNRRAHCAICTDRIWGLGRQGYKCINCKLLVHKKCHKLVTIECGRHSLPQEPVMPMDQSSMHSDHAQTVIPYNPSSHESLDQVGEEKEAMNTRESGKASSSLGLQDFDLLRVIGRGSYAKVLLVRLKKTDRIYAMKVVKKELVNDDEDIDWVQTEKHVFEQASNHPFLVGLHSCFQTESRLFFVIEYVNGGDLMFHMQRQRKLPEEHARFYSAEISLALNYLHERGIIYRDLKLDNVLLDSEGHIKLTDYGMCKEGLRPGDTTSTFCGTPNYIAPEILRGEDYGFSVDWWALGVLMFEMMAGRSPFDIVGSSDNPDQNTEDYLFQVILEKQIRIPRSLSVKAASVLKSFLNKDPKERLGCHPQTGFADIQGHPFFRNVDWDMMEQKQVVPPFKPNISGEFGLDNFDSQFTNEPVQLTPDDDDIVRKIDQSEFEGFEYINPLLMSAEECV
Conditions: 50 nM; read-out: Percent inhibition of kinase activity in vitro, PRKCI (PKC iota). As for the experimental part:
as §1

A further assay has as its target IGF1R (Homo sapiens, UniProt P08069). Conditions: read-out: Percent inhibition of kinase activity in vitro, IGF1R; for inhibition at 0.1 µM: 100 nM; for inhibition at 0.5 µM: 500 nM. As for the experimental part:
as §1

Sequence of LCK (P06239 whole entry): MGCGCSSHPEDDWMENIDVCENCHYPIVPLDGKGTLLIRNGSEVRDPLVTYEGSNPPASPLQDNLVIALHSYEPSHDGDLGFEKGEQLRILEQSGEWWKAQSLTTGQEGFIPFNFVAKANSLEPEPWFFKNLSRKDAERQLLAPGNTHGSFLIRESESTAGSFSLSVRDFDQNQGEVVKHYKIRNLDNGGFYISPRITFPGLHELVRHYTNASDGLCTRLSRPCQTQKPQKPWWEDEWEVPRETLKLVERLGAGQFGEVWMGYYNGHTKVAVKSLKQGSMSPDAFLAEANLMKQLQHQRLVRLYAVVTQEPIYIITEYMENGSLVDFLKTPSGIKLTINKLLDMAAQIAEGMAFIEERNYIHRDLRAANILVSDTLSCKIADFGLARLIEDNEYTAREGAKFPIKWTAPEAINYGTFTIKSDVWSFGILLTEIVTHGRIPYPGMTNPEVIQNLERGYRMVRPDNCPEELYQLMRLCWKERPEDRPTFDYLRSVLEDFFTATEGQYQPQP
Sequence of IGF1R (P08069 31-1367): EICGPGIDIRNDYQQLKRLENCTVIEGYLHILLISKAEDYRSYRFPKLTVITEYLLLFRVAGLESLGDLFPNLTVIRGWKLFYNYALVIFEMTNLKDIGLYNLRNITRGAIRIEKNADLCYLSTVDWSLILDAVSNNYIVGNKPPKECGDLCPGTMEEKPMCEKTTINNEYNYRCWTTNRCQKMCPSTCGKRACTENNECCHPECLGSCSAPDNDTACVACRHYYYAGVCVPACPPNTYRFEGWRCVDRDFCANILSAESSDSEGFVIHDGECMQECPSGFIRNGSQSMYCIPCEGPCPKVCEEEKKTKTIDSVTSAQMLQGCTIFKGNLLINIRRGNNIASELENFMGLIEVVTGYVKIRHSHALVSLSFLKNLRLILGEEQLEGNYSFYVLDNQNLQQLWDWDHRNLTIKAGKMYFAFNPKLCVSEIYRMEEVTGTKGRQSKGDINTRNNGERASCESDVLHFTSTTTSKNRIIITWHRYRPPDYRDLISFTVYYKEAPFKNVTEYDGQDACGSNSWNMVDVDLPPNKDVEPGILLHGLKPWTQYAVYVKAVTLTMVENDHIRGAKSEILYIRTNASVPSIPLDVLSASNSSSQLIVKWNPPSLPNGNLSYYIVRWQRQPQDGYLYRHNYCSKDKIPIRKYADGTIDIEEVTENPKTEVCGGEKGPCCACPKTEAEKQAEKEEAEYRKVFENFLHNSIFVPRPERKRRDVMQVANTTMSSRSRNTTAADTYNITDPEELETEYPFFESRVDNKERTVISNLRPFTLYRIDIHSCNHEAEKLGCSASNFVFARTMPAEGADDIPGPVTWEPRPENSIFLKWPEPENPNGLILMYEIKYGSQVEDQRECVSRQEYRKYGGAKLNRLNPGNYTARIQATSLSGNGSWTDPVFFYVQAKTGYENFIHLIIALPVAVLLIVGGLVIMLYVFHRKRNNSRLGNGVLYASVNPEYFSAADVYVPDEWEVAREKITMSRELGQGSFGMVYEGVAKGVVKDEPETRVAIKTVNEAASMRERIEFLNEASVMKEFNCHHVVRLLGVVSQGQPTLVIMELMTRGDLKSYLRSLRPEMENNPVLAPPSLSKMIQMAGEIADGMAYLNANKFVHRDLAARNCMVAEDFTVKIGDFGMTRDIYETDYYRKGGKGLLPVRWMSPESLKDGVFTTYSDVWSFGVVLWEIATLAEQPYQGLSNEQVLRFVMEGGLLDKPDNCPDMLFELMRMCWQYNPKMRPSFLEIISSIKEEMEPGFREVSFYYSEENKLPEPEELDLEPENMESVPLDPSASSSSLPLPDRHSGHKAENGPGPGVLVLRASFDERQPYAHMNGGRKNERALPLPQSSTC
Sequence of FLT1 (VEGFR1) (P17948 27-1338): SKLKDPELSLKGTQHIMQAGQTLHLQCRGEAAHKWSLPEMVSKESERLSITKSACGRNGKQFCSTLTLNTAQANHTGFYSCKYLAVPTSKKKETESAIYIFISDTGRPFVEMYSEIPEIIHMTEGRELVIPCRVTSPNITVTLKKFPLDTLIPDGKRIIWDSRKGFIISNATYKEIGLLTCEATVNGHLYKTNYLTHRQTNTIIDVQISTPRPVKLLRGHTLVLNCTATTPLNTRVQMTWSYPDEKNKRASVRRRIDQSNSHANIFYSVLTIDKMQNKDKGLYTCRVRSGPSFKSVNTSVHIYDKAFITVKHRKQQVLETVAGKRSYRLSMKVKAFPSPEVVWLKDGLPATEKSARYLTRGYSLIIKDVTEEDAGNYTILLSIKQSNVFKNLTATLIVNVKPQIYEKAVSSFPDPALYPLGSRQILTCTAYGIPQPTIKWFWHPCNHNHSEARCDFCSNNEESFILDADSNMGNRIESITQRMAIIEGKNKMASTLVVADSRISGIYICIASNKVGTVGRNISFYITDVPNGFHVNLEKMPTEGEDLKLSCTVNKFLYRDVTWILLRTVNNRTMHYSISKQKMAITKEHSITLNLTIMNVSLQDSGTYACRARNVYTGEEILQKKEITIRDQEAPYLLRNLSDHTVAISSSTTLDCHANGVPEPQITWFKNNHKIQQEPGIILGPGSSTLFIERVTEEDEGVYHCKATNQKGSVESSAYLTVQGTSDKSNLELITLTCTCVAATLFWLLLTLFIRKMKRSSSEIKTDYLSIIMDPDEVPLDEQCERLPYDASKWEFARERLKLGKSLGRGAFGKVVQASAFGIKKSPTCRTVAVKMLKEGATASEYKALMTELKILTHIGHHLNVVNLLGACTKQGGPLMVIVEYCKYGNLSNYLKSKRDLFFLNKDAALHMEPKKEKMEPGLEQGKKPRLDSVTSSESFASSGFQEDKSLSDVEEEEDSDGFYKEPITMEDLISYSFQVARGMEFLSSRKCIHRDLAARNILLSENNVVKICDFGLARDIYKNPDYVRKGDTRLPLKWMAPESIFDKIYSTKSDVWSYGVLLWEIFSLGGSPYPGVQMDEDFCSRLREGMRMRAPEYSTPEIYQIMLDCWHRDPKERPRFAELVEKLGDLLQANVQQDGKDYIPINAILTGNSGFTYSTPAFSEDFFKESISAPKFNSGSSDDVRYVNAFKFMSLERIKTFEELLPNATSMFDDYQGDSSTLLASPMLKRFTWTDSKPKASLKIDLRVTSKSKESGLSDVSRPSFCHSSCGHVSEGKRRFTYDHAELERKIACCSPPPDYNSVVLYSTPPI
Sequence of PRKCQ (PKC theta) (Q04759 whole entry): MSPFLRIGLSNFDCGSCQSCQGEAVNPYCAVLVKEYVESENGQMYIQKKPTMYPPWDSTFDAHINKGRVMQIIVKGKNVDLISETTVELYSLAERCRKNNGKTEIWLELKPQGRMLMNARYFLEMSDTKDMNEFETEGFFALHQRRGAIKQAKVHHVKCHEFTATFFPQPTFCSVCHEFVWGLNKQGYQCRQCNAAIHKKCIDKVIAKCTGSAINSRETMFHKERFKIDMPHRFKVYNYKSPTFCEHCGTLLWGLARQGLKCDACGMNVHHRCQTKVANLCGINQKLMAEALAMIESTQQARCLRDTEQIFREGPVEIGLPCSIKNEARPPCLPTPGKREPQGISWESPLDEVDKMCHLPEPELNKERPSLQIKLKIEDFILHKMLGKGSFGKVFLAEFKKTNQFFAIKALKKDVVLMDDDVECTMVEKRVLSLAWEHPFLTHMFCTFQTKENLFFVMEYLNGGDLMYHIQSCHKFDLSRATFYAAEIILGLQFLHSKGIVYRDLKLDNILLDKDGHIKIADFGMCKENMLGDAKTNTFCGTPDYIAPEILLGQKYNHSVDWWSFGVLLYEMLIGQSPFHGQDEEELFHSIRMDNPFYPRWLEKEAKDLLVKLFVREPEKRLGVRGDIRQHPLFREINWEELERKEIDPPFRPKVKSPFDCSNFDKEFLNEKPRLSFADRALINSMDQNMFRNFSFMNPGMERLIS

Usually inhibition stands for the change of the read-out against control, counted positive when it falls. For the molecule `O=c1c2ccccc2[se]n1-c1nc(NC2CCCCC2)c2nc[nH]c2n1` [Compound 1], the inhibition at 0.1 µM came to 6% at SYK; 0% on FLT1 (VEGFR1); 7% at LCK; 12% on AURKB (Aurora B); 0% at IGF1R. Moreover, the inhibition at 0.5 µM is 8% at SYK; 1% at FLT1 (VEGFR1); 14% at LCK; 25% on AURKB (Aurora B); 12% at IGF1R. Moreover, the inhibition at 0.05 µM at PRKD1 (PKC mu) is 5%; at PRKCB2 (PKC beta II), 62%; on PRKCQ (PKC theta), 62%; at PRKCI (PKC iota) it was 4%.
Take `O=c1c2ccccc2[se]n1-c1nc(NC2CC[Se]C2)c2nc[nH]c2n1` (stereo not drawn) [Compound 2]: the results for the inhibition at 0.1 µM on SYK, at LCK and on AURKB (Aurora B) were 2%, 10% and 19%, respectively. Besides, the inhibition at 0.5 µM on SYK amounted to 9%; on FLT1 (VEGFR1), 5%; at LCK, 14%; at AURKB (Aurora B), 13%; on IGF1R, 11%.
With `C[C@@H]1C(Nc2nc(-n3[se]c4ccccc4c3=O)nc3[nH]cnc23)C[C@H]2C[C@@H]1C2(C)C` (stereo partly drawn) [Compound 3], the inhibition at 0.1 µM on SYK stood at 0%; at LCK, 0%; on AURKB (Aurora B), 24%. Further, the inhibition at 0.5 µM came out at 24% on SYK; 7% on FLT1 (VEGFR1); 16% on LCK; 19% on AURKB (Aurora B); 13% at IGF1R.
For the molecule `O=c1c2ccccc2[se]n1-c1nc(N[C@H]2CC[Se]C2)c2nc[nH]c2n1` [Compound 4], the inhibition at 0.1 µM on SYK came to 6%; on FLT1 (VEGFR1), 4%; on LCK, 8%; on AURKB (Aurora B), 14%; at IGF1R, 4%. For the same molecule, the inhibition at 0.05 µM stood at 7% at PRKD1 (PKC mu), 95% on PRKCB2 (PKC beta II), 98% at PRKCQ (PKC theta) and 7% at PRKCI (PKC iota).
Turning to `O=C1c2ccccc2CN1c1nc(NC2CCCCC2)c2nc[nH]c2n1` [SLLN-6C, reference compound], the inhibition at 0.1 µM turned out to be 2% on SYK; 0% at FLT1 (VEGFR1); 8% on LCK; 10% on AURKB (Aurora B); 0% on IGF1R. In addition, the inhibition at 0.05 µM at PRKD1 (PKC mu) turned out to be 6%; at PRKCB2 (PKC beta II) it was 5%; at PRKCQ (PKC theta), 0%; on PRKCI (PKC iota), 7%.
